{"source": "patent US20010033864A1", "about": "“Low dose entecavir formulation and use” (priority 2000, published 2001)", "key": {"hepatitis B virus [1]": {"tested_on": "hepatitis B virus", "assay": "28-day randomized, double-blind, placebo-controlled, dose-escalating trial of safety and antiviral activity in chronic hepatitis B", "assay_type": "in vivo, human", "conditions": "for mean log reduction in hepatitis B virus DNA viral levels in the blood: human subjects with chronic HBV infection, day 28", "procedure": "The safety and antiviral activity of entecavir given for 28 days to human subjects with chronic hepatitis B virus infection was studied in a randomized, double-blind, placebo-controlled, dose-escalating trial. […] The mean log reduction in hepatitis B virus DNA viral levels in the blood at day 28 were 2.21, 2.25, 2.81, and 2.42 for the 0.05, 0.1, 0.5 and 1.0 mg once daily doses of entecavir, respectively."}, "hepatitis B virus [2]": {"tested_on": "hepatitis B virus", "assay": "24-week randomized, double-blind, lamivudine-controlled trial of safety and antiviral activity in chronic hepatitis B", "assay_type": "in vivo, human", "conditions": "24 weeks", "procedure": "The safety and antiviral activity of three doses of entecavir (0.01 mg, 0.1 mg and 0.5 mg) given once daily for 24 weeks were studies in adults with chronic hepatitis B in a randomized, double-blind, lamivudine (100 mg QD) controlled trial."}}}
{"smiles": "C=C1C(CO)C(O)C[C@@H]1n1cnc2c(=O)[nH]c(N)nc21", "note": "(stereo partly drawn) [Entecavir, [1S-(1α,3α, 4β)]-2-amino-1,9-dihydro-9-[4-hydroxy-3-(hydroxymethyl)-2-methylenecyclopentyl]-6H-purin-6-one]", "values": [{"measurement": "safety / tolerability", "setting": "hepatitis B virus [1]; 0.05-1.0 mg once daily for 28 days, human subjects", "value": "well tolerated"}, {"measurement": "antiviral activity", "setting": "hepatitis B virus [1]; all doses tested (0.05, 0.1, 0.5, 1.0 mg once daily), 28 days", "value": "potent antiviral activity"}, {"measurement": "mean log reduction in hepatitis B virus DNA viral levels in the blood", "setting": "hepatitis B virus [1]; 0.05 mg once daily", "value": 2.21, "unit": "log"}, {"measurement": "mean log reduction in hepatitis B virus DNA viral levels in the blood", "setting": "hepatitis B virus [1]; 0.1 mg once daily", "value": 2.25, "unit": "log"}, {"measurement": "mean log reduction in hepatitis B virus DNA viral levels in the blood", "setting": "hepatitis B virus [1]; 0.5 mg once daily", "value": 2.81, "unit": "log"}, {"measurement": "mean log reduction in hepatitis B virus DNA viral levels in the blood", "setting": "hepatitis B virus [1]; 1.0 mg once daily", "value": 2.42, "unit": "log"}, {"measurement": "safety / tolerability", "setting": "hepatitis B virus [2]; all doses (0.01, 0.1, 0.5 mg once daily)", "value": "well tolerated"}, {"measurement": "antiviral activity", "setting": "hepatitis B virus [2]; all three doses (0.01, 0.1, 0.5 mg once daily), adults with chronic hepatitis B", "value": "potent antiviral activity"}, {"measurement": "reductions in hepatitis B virus DNA viral levels in blood compared to lamivudine", "setting": "hepatitis B virus [2]; two higher doses (0.1 mg and 0.5 mg once daily), vs lamivudine 100 mg QD", "value": "significantly greater reductions"}]}
